Results taken from US10577363B2, “Substituted piperidine compounds” (EPIZYME, INC., priority 2014, dated 2020).

Legend:
SMYD3 [1] = molecular target: T1, SMYD3 (Homo sapiens (Human), UniProt Q9H7B4); assay: SMYD3 biochemical assay (SPA, 3H-SAM methylation of MEKK2 protein substrate); conditions: read-out: SMYD3 Biochem IC50 (μM)*
Outline: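 Native full-length human SMYD3 (E. coli-expressed, tags removed) was preincubated with compound for 30 min at room temperature in 25 mM Tris-Cl pH 8.0, 1 mM TCEP, 0.005% BSG, 0.005% Tween 20. Reaction was started with 3H-SAM plus GST-MEKK2, quenched with 100 uM unlabeled SAM, and read by SPA scintillation counting.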

SMYD3 [2] = molecular target: T1, SMYD3; assay: SMYD3 cell assay (Trimethyl-MEKK2 In-Cell Western in 293T/17 cells); format: cell-based
Outline: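 In-Cell Western ratio of trimethyl-Lys260 MEKK2 to anti-flag signal; percent inhibition from DMSO and maximum-inhibition controls, IC50 by non-linear regression, triplicates.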

[3] = 293T/17 cells, read-out: SMYD3 Cell IC50 (μM)*

T1 sequence (Q9H7B4 whole entry): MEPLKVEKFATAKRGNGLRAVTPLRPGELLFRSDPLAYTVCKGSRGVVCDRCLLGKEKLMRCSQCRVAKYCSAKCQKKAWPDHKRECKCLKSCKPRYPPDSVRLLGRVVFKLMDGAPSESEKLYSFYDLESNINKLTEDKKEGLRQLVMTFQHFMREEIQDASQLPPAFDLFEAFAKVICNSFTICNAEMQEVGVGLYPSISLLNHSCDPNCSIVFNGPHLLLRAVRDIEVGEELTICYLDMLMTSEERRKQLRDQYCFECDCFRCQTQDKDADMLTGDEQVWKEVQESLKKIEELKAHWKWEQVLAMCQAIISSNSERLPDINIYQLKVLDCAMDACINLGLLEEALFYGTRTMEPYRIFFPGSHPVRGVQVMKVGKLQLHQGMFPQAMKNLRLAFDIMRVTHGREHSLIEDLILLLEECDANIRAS

| IC50 (SMYD3 [1]) | IC50 (SMYD3 [2]; [3]) | SMILES | IC50 (SMYD3 [2]) |
| --- | --- | --- | --- |
| 1.33 µM | 4.84 µM | C[C@H]1C[C@@H](NC(=O)c2cc(C3CC3)on2)CCN1S(=O)(=O)N(C)C [compound 315, 5-cyclopropyl-N-((2S,4S)-1-(N,N-dimethylsulfamoyl)-2-methylpiperidin-4-yl)isoxazole-3-carboxamide] |  |
| 0.237 µM | 0.782 µM | CCCCS(=O)(=O)N1CC[C@H](NC(=O)c2cc(C3CC3)on2)C[C@@H]1C [compound 316, N-((2S,4S)-1-(butylsulfonyl)-2-methylpiperidin-4-yl)-5-cyclopropylisoxazole-3-carboxamide] |  |
| 0.686 µM | 4.11 µM | C[C@H]1C[C@@H](NC(=O)c2cc(C3CC3)on2)CCN1S(=O)(=O)c1cccnc1 [compound 317, 5-cyclopropyl-N-((2S,4S)-2-methyl-1-(pyridin-3-ylsulfonyl)piperidin-4-yl)isoxazole-3-carboxamide] |  |
| 1.43 µM | 4.53 µM | C[C@H]1C[C@@H](NC(=O)c2cc(C3CC3)on2)CCN1S(=O)(=O)Cc1cccnc1 [compound 319, 5-cyclopropyl-N-((2S,4S)-2-methyl-1-((pyridin-3-ylmethyl)sulfonyl)piperidin-4-yl)isoxazole-3-carboxamide] |  |
| 6.91 µM | 15.2 µM | C[C@@H]1C[C@H](NC(=O)c2cc(C3CC3)on2)CCN1S(=O)(=O)N(C)C [compound 328, 5-cyclopropyl-N-((2R,4R)-1-(N,N-dimethylsulfamoyl)-2-methylpiperidin-4-yl)isoxazole-3-carboxamide] |  |
| 6.42 µM | 20 µM | C[C@@H]1C[C@H](NC(=O)c2cc(C3CC3)on2)CCN1S(=O)(=O)Cc1cccnc1 [compound 329, 5-cyclopropyl-N-((2R,4R)-2-methyl-1-((pyridin-3-ylmethyl)sulfonyl)piperidin-4-yl)isoxazole-3-carboxamide] |  |
| 0.147 µM | 2.31 µM | CCOC(=O)C1CN(S(=O)(=O)CCCN)CCC1NC(=O)c1cc(C2CC2)on1 (stereo not drawn) [compound 331, ethyl 1-((3-aminopropyl)sulfonyl)-4-(5-cyclopropylisoxazole-3-carboxamido)piperidine-3-carboxylate] |  |
| > 10 µM | > 40 µM | NCCCC(=O)N1CC[C@@H](NC(=O)c2cc(C3CC3)on2)C[C@H]1Cc1ccccc1 [compound 333, N-((2R,4R)-1-(4-aminobutanoyl)-2-benzylpiperidin-4-yl)-5-cyclopropylisoxazole-3-carboxamide] |  |
| 1.9 µM | 33 µM | NCCCC(=O)N1CC[C@@H](NC(=O)c2cc(C3CC3)on2)C[C@@H]1Cc1ccccc1 [compound 334, N-((2S,4R)-1-(4-aminobutanoyl)-2-benzylpiperidin-4-yl)-5-cyclopropylisoxazole-3-carboxamide] |  |
| 1.12 µM | 19.6 µM | NCCCC(=O)N1CC[C@H](NC(=O)c2cc(C3CC3)on2)C[C@H]1Cc1ccccc1 [compound 335, N-((2R,4S)-1-(4-aminobutanoyl)-2-benzylpiperidin-4-yl)-5-cyclopropylisoxazole-3-carboxamide] |  |
| 0.0541 µM | 1.62 µM | NCCCC(=O)N1CC[C@H](NC(=O)c2cc(C3CC3)on2)C[C@@H]1Cc1ccccc1 [compound 336, N-((2S,4S)-1-(4-aminobutanoyl)-2-benzylpiperidin-4-yl)-5-cyclopropylisoxazole-3-carboxamide] |  |
| 0.961 µM | 13 µM | C[C@H]1C[C@@H](NC(=O)c2cc(C3CC3)on2)CCN1C(=O)CC(C)(C)CN [compound 337, N-((2S,4S)-1-(4-amino-3,3-dimethylbutanoyl)-2-methylpiperidin-4-yl)-5-cyclopropylisoxazole-3-carboxamide] |  |
| > 10 µM | > 40 µM | C[C@H]1C[C@@H](NC(=O)c2cc(C3CC3)on2)CCN1C(=O)c1ccc2[nH]cnc2c1 [compound 340, N-((2S,4S)-1-(1H-benzo[d]imidazole-5-carbonyl)-2-methylpiperidin-4-yl)-5-cyclopropylisoxazole-3-carboxamide] |  |
| 1 µM | 6.01 µM | C[C@@H]1C[C@H](NC(=O)c2cc(C3CC3)on2)CCN1C(=O)c1ccc2[nH]cnc2c1 [compound 341, N-((2R,4R)-1-(1H-benzo[d]imidazole-5-carbonyl)-2-methylpiperidin-4-yl)-5-cyclopropylisoxazole-3-carboxamide] |  |
| 2.27 µM | > 40 µM | O=C(N[C@@H]1CCN(C(=O)CC2CCNCC2)[C@H](Cc2ccccc2)C1)c1cc(C2CC2)on1 [compound 349, N-((2R,4R)-2-benzyl-1-(2-(piperidin-4-yl)acetyl)piperidin-4-yl)-5-cyclopropylisoxazole-3-carboxamide] |  |
| 3.09 µM | 7.83 µM | C[C@@H]1C[C@H](NC(=O)c2cc(C3CC3)on2)CCN1S(=O)(=O)c1ccccc1 [compound 351, 5-cyclopropyl-N-((2R,4R)-2-methyl-1-(phenylsulfonyl)piperidin-4-yl)isoxazole-3-carboxamide] |  |
| 0.152 µM | 0.996 µM | C[C@H]1C[C@@H](NC(=O)c2cc(C3CC3)on2)CCN1S(=O)(=O)c1ccccc1 [compound 352, 5-cyclopropyl-N-((2S,4S)-2-methyl-1-(phenylsulfonyl)piperidin-4-yl)isoxazole-3-carboxamide] |  |
| 1.14 µM | 5.65 µM | C[C@@H]1C[C@H](NC(=O)c2cc(C3CC3)on2)CCN1S(=O)(=O)c1cccc(C#N)c1 [compound 354, N-((2R,4R)-1-((3-cyanophenyl)sulfonyl)-2-methylpiperidin-4-yl)-5-cyclopropylisoxazole-3-carboxamide] |  |
| 0.792 µM | 8.28 µM | C[C@H](C(=O)N1CC[C@H](NC(=O)c2cc(C3CC3)on2)C[C@@H]1C)C1CCNCC1 [compound 360, 5-cyclopropyl-N-((2S,4S)-2-methyl-1-((S)-2-(piperidin-4-yl)propanoyl)piperidin-4-yl)isoxazole-3-carboxamide] |  |
| 1.36 µM | 13.6 µM | C[C@@H](C(=O)N1CC[C@H](NC(=O)c2cc(C3CC3)on2)C[C@@H]1C)C1CCNCC1 [compound 361, 5-cyclopropyl-N-((2S,4S)-2-methyl-1-((R)-2-(piperidin-4-yl)propanoyl)piperidin-4-yl)isoxazole-3-carboxamide] |  |
| 0.454 µM | 3.88 µM | C[C@@H]1C[C@H](NC(=O)c2cc(C3CC3)on2)CCN1C(=O)c1cccc(C(C)(C)N)c1 [compound 365, N-((2R,4R)-1-(3-(2-aminopropan-2-yl)benzoyl)-2-methylpiperidin-4-yl)-5-cyclopropylisoxazole-3-carboxamide] |  |
| 4.29 µM | 30.6 µM | C[C@H]1C[C@@H](NC(=O)c2cc(C3CC3)on2)CCN1C(=O)c1cccc(C(C)(C)N)c1 [compound 367, N-((2S,4S)-1-(3-(2-aminopropan-2-yl)benzoyl)-2-methylpiperidin-4-yl)-5-cyclopropylisoxazole-3-carboxamide] |  |
| 0.122 µM | 1.04 µM | C[C@@H]1C[C@H](NC(=O)c2cc(C3CC3)on2)CCN1C(=O)c1ccc(C(C)(C)N)cc1 [compound 368, N-((2R,4R)-1-(4-(2-aminopropan-2-yl)benzoyl)-2-methylpiperidin-4-yl)-5-cyclopropylisoxazole-3-carboxamide] |  |
| 4.39 µM | > 40 µM | C[C@H]1C[C@@H](NC(=O)c2cc(C3CC3)on2)CCN1C(=O)c1ccc(C(C)(C)N)cc1 [compound 370, N-((2S,4S)-1-(4-(2-aminopropan-2-yl)benzoyl)-2-methylpiperidin-4-yl)-5-cyclopropylisoxazole-3-carboxamide] |  |
| 2.47 µM | 29.8 µM | C[C@H]1C[C@@H](NC(=O)c2cc(C3CC3)on2)CCN1C(=O)C1CCCC(CN)C1 (stereo partly drawn) [compound 373, N-((2S,4S)-1-(3-(aminomethyl)cyclohexane-1-carbonyl)-2-methylpiperidin-4-yl)-5-cyclopropylisoxazole-3-carboxamide] |  |

| SMILES | IC50 (SMYD3 [1]) | IC50 (SMYD3 [2]; [3]) | IC50 (SMYD3 [2]) |
| --- | --- | --- | --- |
| CC(=O)Nc1ccc(S(=O)(=O)N2CC[C@@H](NC(=O)c3cc(C4CC4)on3)C[C@H]2C)cc1 [compound 330, N-((2R,4R)-1-((4-acetamidophenyl)sulfonyl)-2-methylpiperidin-4-yl)-5-cyclopropylisoxazole-3-carboxamide] | > 10 µM | 29.3 µM |  |
| CC(=O)Nc1ccc(S(=O)(=O)N2CC[C@@H](NC(=O)c3cc(C4CC4)on3)C[C@@H]2C)cc1 [compound 377, N-((2S,4R)-1-((4-acetamidophenyl)sulfonyl)-2-methylpiperidin-4-yl)-5-cyclopropylisoxazole-3-carboxamide] | > 10 µM | 27.6 µM |  |
| CC(=O)Nc1ccc(S(=O)(=O)N2CC[C@H](NC(=O)c3cc(C4CC4)on3)C[C@@H]2C)cc1 [compound 378, N-((2S,4S)-1-((4-acetamidophenyl)sulfonyl)-2-methylpiperidin-4-yl)-5-cyclopropylisoxazole-3-carboxamide] | 0.577 µM | 2.74 µM |  |
| CC(C)CN(C)c1ccc(S(=O)(=O)N2CC[C@H](NC(=O)c3cc(C4CC4)on3)C[C@@H]2C)cn1 [compound 381, 5-cyclopropyl-N-((2S,4S)-1-((6-(isobutyl(methyl)amino)pyridin-3-yl)sulfonyl)-2-methylpiperidin-4-yl)isoxazole-3-carboxamide] | > 10 µM | > 40 µM |  |
| C[C@H]1CN(S(=O)(=O)CCCN)CC[C@@H]1NC(=O)c1cc(C2CC2)on1 [compound 385, N-((3S,4S)-1-((3-aminopropyl)sulfonyl)-3-methylpiperidin-4-yl)-5-cyclopropylisoxazole-3-carboxamide] | 0.0882 µM |  | 1.23 µM |
